The target in one assay is T1, CD38 hydrolase (Homo sapiens, UniProt P28907).
T1 sequence (P28907 1-300): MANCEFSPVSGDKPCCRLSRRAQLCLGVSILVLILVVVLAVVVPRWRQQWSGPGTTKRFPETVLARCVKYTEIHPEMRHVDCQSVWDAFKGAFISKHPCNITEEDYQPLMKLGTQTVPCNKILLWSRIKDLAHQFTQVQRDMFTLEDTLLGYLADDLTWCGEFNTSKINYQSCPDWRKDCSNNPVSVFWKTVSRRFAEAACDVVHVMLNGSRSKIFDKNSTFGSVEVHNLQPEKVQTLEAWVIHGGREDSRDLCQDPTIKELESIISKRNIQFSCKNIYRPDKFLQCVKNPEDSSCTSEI
In words: CD38 hydrolase activity, fluorometric assay with ε-NAD+ as substrate. It counts as biochemical. As to conditions: hydrolase versus cyclase screen.

The next assay has as its target T2, CD38 cyclase (Homo sapiens, UniProt P28907).
T2 sequence (P28907 1-300): T1 sequence (P28907 1-300)
In words: CD38 cyclase activity, fluorometric assay with NGD+ as substrate. It counts as biochemical. The settings on record: for remaining activity at 50 µM: read-out: % cyclase activity remaining (50 μM).

A further assay relates to PBMCs. Briefly: Cytokine analysis. It counts as cell-based. The settings on record: 1.0 μM, 48 hours, activated PBMCs from 3 donors.

`O=c1cc(-c2ccc(O)cc2)oc2cc(O)cc(O)c12` [apigenin]: the “selectivity between hydrolase and cyclase activity (in words)” value on CD38 hydrolase is “neither compound showed significant selectivity”.
In general, IC50 refers to the midpoint of a concentration-inhibition curve. Lower therefore signals inhibition by little substance. Usually remaining activity stands for what remains of the control signal, in per cent. Take `O=C1NC(=S)S/C1=C\c1ccc(C(F)(F)F)cc1` [Compound 23]: on CD38 cyclase, the IC50 worked out at 4.65 µM and the remaining activity at 50 µM was determined as 9.3 ± 0.8%. The “increase in IFNγ (in words)” value in the assay on PBMCs is listed as “more effective than 78c”.
For the molecule `Cc1ccc(-c2cccc(/C=C3\SC(=S)NC3=O)c2)cc1` [Compound 29], on CD38 cyclase, the IC50 is more than 100 µM and the remaining activity at 50 µM turned out to be 98.6 ± 4.7%.
In the same order, the values of `O=C1NC(=S)S/C1=C\c1ccc2c(c1)-c1ccccc1C2` [Compound 31] are more than 100 µM and 96.3 ± 6.8%.
Consider `O=C1NC(=S)S/C1=C\c1ccc(-c2ccccc2)cc1` [Compound 40], for which the remaining activity at 50 µM at CD38 cyclase came out at 22.1 ± 14.3%.
With `O=C1NC(=S)S/C1=C\c1ccc2oc3ccccc3c2c1` [Compound 26], at CD38 cyclase, the IC50 was more than 100 µM and the remaining activity at 50 µM was determined as 77.3 ± 22.4%.
In the case of `O=C1NC(=S)S/C1=C\c1ccccc1C(F)(F)F` [Compound 41], at CD38 cyclase, the IC50 is more than 100 µM and the remaining activity at 50 µM was 81.6 ± 2.4%.
In the case of `COc1ccc2cc(/C=C3\SC(=S)NC3=O)ccc2c1` [Compound 36], at CD38 cyclase, the IC50 is more than 100 µM and the remaining activity at 50 µM amounted to 90 ± 5.4%.
As to `COc1cc(/C=C2\SC(=S)NC2=O)cc(OC)c1OC` [Compound 39], on CD38 cyclase, the midpoint of inhibition, the IC50, lay at 68.6 µM and the remaining activity at 50 µM stood at 64.1 ± 7.2%.
In the same order, the values of `Cc1ccc(-c2ccc(/C=C3\SC(=S)NC3=O)cc2)cc1` [Compound 33] are 10 µM and 39.4 ± 4.9%.
In the same order, the values of `O=C1NC(=S)S/C1=C\c1ccccc1OC(F)(F)F` [Compound 42] are more than 100 µM and 87.1 ± 3.4%.
In the same order, the values of `O=C1NC(=S)S/C1=C\c1ccc2c(c1)OCCO2` [Compound 28] are more than 100 µM and 93.9 ± 6.9%.
Turning to `CS(=O)(=O)c1ccc(/C=C2\SC(=S)NC2=O)cc1` [Compound 21], on CD38 cyclase, the IC50 came out at 11.5 µM and the remaining activity at 50 µM was found to be 22.1 ± 4%.
In the same order, the values of `O=C1NC(=S)S/C1=C\c1ccc(OC(F)(F)F)cc1` [Compound 22] are 4.81 µM and 21.7 ± 8.1%.
In the same order, the values of `COc1ccc(-c2ccc(/C=C3\SC(=S)N(C)C3=O)cc2)cc1` [Compound 24] are more than 100 µM and 90.1 ± 3.9%.
In the case of `O=C1NC(=S)S/C1=C\c1ccc(-c2ccccn2)cc1` [Compound 34], at CD38 cyclase, the IC50 stood at 56 µM and the remaining activity at 50 µM was 66.3 ± 23.4%.
Regarding `Cc1ccc(-c2ccc(/C=C3\SC(=S)N(C)C3=O)cc2)cc1` [Compound 43], at CD38 cyclase, the IC50 is 48.2 µM and the remaining activity at 50 µM was determined as 29 ± 18.8%.
Turning to `O=C1NC(=S)S/C1=C\c1cc2cc3c(cc2nc1Cl)OCO3` [Compound 30], at CD38 cyclase, the half-maximal inhibitory concentration (IC50) worked out at 20.9 µM and the remaining activity at 50 µM amounted to 70.3 ± 40.7%.
Regarding `COc1ccc(-c2ccc(/C=C3\SC(=S)NC3=O)cc2)cc1` [Compound 45], on CD38 cyclase, the IC50 was 53.8 µM and the remaining activity at 50 µM came to 55.7 ± 2.3%.
In the same order, the values of `O=C1NC(=S)S/C1=C\c1ccc(OCc2ccccc2)cc1` [Compound 38] are more than 100 µM and 84.5 ± 8.5%.
On to `O=C1NC(=S)S/C1=C\c1ccc2ncccc2c1` [Compound 25], for which, at CD38 cyclase, the IC50 was 56 µM and the remaining activity at 50 µM came out at 68.3 ± 18.2%.
In the same order, the values of `O=C1NC(=S)S/C1=C\c1ccc(Oc2ccccc2)cc1` [Compound 27] are more than 100 µM and 88.2 ± 0.6%.
In the same order, the values of `Cc1ccc(-c2ccc(/C=C3\SC(=O)NC3=O)cc2)cc1` [Compound 37] are more than 100 µM and 84.5 ± 2.2%.
On to `O=C1NC(=S)S/C1=C\c1ccc(-c2ccc(C(F)(F)F)cc2)cc1` [Compound 32], for which, at CD38 cyclase, the IC50 came to 3.15 µM and the remaining activity at 50 µM amounted to 64.5 ± 4.2%. Moreover, the “increase in IFNγ (in words)” value with PBMCs is “more effective than 78c”.
Take `O=C1NC(=S)S/C1=C\c1ccc(-c2cccc(C(F)(F)F)c2)o1` [Compound 35]: on CD38 cyclase, the IC50 was more than 100 µM and the remaining activity at 50 µM was found to be 81.7 ± 9%.

The record behind these values is PMC9042253 (RSC Advances, 2021).
